According to ChEMBL document CHEMBL1126743, “New pyridobenzodiazepine derivatives as potential antipsychotics: synthesis and neurochemical study” (J Med Chem, 1993):
Active and inactive are the calls of the source. The rule behind the calls is not given here.

How the values were obtained:
[1] = target: Serotonin 2 (5-HT2) receptor (Rattus norvegicus, UniProt P30994+P08909+P14842)
Description: In vitro binding affinity against rat 5-hydroxytryptamine 2 receptor.

[2] = target: Muscarinic acetylcholine receptor
Description: In vitro binding affinity against Muscarinic acetylcholine receptors in rat brain.

D(1A) dopamine receptor = D(1A) dopamine receptor (Rattus norvegicus, UniProt P18901); test: biochemical
Chain of D(1A) dopamine receptor (P18901 whole entry): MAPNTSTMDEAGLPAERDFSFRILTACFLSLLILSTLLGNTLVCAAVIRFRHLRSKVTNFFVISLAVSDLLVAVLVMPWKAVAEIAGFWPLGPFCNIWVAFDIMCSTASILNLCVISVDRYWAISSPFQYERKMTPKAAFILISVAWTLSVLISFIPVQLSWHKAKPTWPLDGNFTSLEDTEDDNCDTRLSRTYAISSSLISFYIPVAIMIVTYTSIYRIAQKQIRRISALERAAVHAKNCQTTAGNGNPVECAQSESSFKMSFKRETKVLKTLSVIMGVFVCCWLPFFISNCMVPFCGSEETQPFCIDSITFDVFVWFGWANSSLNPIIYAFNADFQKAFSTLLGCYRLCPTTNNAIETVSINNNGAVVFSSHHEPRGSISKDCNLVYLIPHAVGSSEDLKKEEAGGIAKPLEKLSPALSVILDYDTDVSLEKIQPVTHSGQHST
Description: In vitro binding affinity against Dopamine receptor D1 in rat striatal tissue

Rattus norvegicus [3] = species on record: Rattus norvegicus; test: animal or person; details: sc, read-out: Inhibition
Rattus norvegicus [4] = test: In vivo inhibition of apomorphine-mediated stereotypy in rats administered subcutaneously at 20 mg/kg expressed as ED50 (mg/kg); Inactive; assay type: functional, organism-based; set-up: dose 20 mg/kg
Rattus norvegicus [5] = species on record: Rattus norvegicus; test: animal or person; details: sc
Rattus norvegicus [6] = test: In vivo inhibition of apomorphine-mediated stereotypy in rats administered subcutaneously at 10 mg/kg expressed as percent inhibition; assay type: functional; details: sc, route subcutaneous
Rattus norvegicus [7] = test: In vivo inhibition of apomorphine-mediated stereotypy in rats administered subcutaneously at 20 mg/kg expressed as ED50 (mg/kg); Onactive; assay type: functional, organism-based; set-up: dose 20 mg/kg
Rattus norvegicus [8] = test: In vivo inhibition of apomorphine-mediated stereotypy in rats administered subcutaneously at 20 mg/kg expressed as percent inhibition; assay type: functional; details: sc, route subcutaneous
Rattus norvegicus [9] = species on record: Rattus norvegicus; test: animal or person; details: sc, read-out: Inhibition; remark: listed apart in the source
Rattus norvegicus [10] = test: In vivo inhibition of apomorphine-mediated stereotypy in rats administered subcutaneously at 20 mg/kg expressed as ED50 (mg/kg); assay type: functional; details: sc, route subcutaneous

Compound	Ki [1]	Ki [2]	Ki (D(1A) dopamine receptor)	inhibition in vivo at 20 mg/kg (Rattus norvegicus [3])	other results
CN1CCN(C2=Nc3cccnc3N(C)c3ccccc32)CC1	2900 nM	175 nM	6020 nM	0%	
CN1CCN(C2=Nc3cc(Cl)ccc3Nc3ccccc32)CC1 [CLOZAPINE]				0%	ED50 (Rattus norvegicus [4]): inactive
CN1CCN(C2=Nc3ccccc3Sc3ccc(Cl)cc32)CC1 [CLOTHIAPINE]	0.6 nM	136 nM	14 nM	100%	ED50 (Rattus norvegicus [5]): 0.72 mg/kg
CN1CCN(C2=Nc3cccnc3N(C=O)c3ccccc32)CC1	1870 nM	311 nM	47900 nM	0%	
Cc1ccc2c(c1)C(N1CCN(C)CC1)=Nc1cccnc1N2	94 nM	48 nM	398 nM	75%	
CN1CCN(C2=Nc3cccnc3Nc3ccc(Cl)cc32)CC1	6.2 nM	65 nM	2140 nM		inhibition in vivo at 10 mg/kg (Rattus norvegicus [6]): 75%
CN1CCN(C2=Nc3ccccc3Nc3ccc(Cl)cc32)CC1 [ISOCLOZAPINE]		21 nM	28 nM		ED50 (Rattus norvegicus [5]): 1.7 mg/kg
CN1CCN(C2=Nc3cnccc3Nc3ccccc32)CC1	837 nM	430 nM	13500 nM		
Cc1cnc2c(c1)N=C(N1CCN(C)CC1)c1ccccc1N2	103 nM	523 nM	1140 nM		
CN1CCN(C2=Nc3cccnc3Nc3ccccc32)CC1	124 nM	665 nM	2400 nM	0%	
CN1CCN(C2=Nc3ccccc3N(C=O)c3ccncc32)CC1	2053 nM	3450 nM	3020 nM	0%	
CN1CCN(C2=Nc3ccccc3N(C=O)c3ncccc32)CC1	7120 nM	3415 nM	30200 nM	0%	
CN1CCN(C2=Nc3ccccc3Nc3ccncc32)CC1	29 nM	3260 nM	302 nM	45%	
CN1CCN(C2=Nc3cc(Cl)ccc3Sc3ccccc32)CC1 [ISOCLOTHIAPINE]	4.1 nM	5.6 nM	240 nM		ED50 (Rattus norvegicus [7]): inactive
CN1CCN(C2=Nc3ccccc3Nc3ncccc32)CC1	103 nM	303 nM	726 nM	0%	
CN1CCN(C2=Nc3cc(F)ccc3Cc3ccccc32)CC1 [FLUPERLAPINE]	3.8 nM	25 nM	141 nM		
CN1CCN(C2=Nc3cccnc3Nc3ccc(F)cc32)CC1	124 nM	415 nM	677 nM		inhibition in vivo at 20 mg/kg (Rattus norvegicus [8]): 55%
CN1CCN(C2=Nc3cccnc3Nc3cc(Cl)ccc32)CC1	48 nM	366 nM	214 nM	70%	
O=C(CCCN1CCC(O)(c2ccc(Cl)cc2)CC1)c1ccc(F)cc1 [HALOPERIDOL]					inhibition in vivo at 0.6 mg/kg (Rattus norvegicus [9]): 100%; ED50 (Rattus norvegicus [10]): 0.14 mg/kg
